{"source": "patent US20130190324A1", "about": "“TOPICAL OCULAR DRUG DELIVERY” (The Regents of the University of Colorado, a body corporate, priority 2011, published 2013)", "key": {"[1]": {"system": "human sclera-choroid-RPE (SCRPE)", "test": "In vitro transport of transporter substrate cassette across human sclera-choroid-RPE", "details": "human SCRPE", "method": "(§1) In vitro transport studies across human cornea and sclera-choroid-RPE (SCRPE) were carried out according to previously published method using the cassette dosing approach. Briefly, cassette of drug transporter substrate including Gly-Sar (PEPT), L-tryptophan (ATB^0+), MPP^+ (OCT), and phenyl acetic acid (MCT) at concentration of 100 μM in assay buffer was prepared. Briefly, the human eyes were washed with assay buffer and cleaned from muscle and conjunctiva tissues, and anterior and posterior parts were separated by giving circumferential cut behind the limbus. Small sclera part was left with cornea, which helps in mounting of cornea on Ussing chambers. Neural retina was separated from the choroid-RPE by filling the eye cup with assay buffer, and floating retina was collected. After separation of retina, eye cup was divided into two rectangular pieces (˜1.5×1.5 cm) of sclera-choroid-RPE. Isolated tissues were mounted on modified Ussing chambers (Navicyte, Sparks, Nev.) such that the episcleral side of SCRPE or epithelial side of cornea was facing the donor chamber and retinal side or endothelial side of cornea is facing the receiver chamber. To study the effect of directionality on transport, one set of Ussing chambers mounted so that sclera side facing the donor side and another set was mounted so that choroid-RPE facing the donor side. The effect of directionality of transport across cornea was not evaluated. The chambers were filled with 1.5 ml of assay buffer with (donor side) or without (receiver side) the cocktail of drug transporter substrates. For study of effect of transporter inhibitors, cocktail mixture (500 μM) of transporter inhibitor was added on both donor and acceptor side.\n(§2) During the transport study, the bathing fluids were maintained at 37° C. using a circulating warm water and pH 7.4 using 95% air-5% CO2 aeration. Samples were collected (200 μL) form receiver side every hour for 6 hr and the lost volume was compensated with fresh assay buffer pre-equilibrated at 37° C. The drug levels were analyzed using a LC-MS/MS assay. Permeation data were corrected for dilution of the receiver solution with sample volume replenishment.\nAnalytes concentrations in transport study samples were analyzed using LC-MS/MS method after 5-fold dilution with acetonitrile to reduce the salt concentrations. Cassette analysis method was developed for simultaneous analysis of Gly-Sar, L-tryptophan and MPP^+. Phenyl acetic acid was analyzed separately in negative ionization method and normal phase separation method. An API-3000 triple quadrupole mass spectrometry (Applied Biosystems, Foster City, Calif., USA) coupled with a PerkinElmer series-200 liquid chromatography (Perkin Elmer, Walthm, Mass., USA) system was used for analysis. Gly-Sar, L-tryptophan and MPP^+ were separated on Supelco C-5 column (2.1×10 mm, 3 μm) using water containing 0.1% formic acid (A) and acetonitrile:methanol (50:50 v/v) containing 0.1% formic acid (B) as mobile phase and a linear gradient elution at a flow rate of 0.3 ml/min with total run time of 9 min. Phenyl acetic acid was separated in normal phase separation mode using Obelisc-N silica column (2.1×10 mm, 3 μM) using 5 mM ammonium formate, pH 3.5 (A) and acetonitrile (B) as mobile phase in linear gradient mode at flow rate of 0.3 ml with total run time of 6 min. Gly-Sar, L-tryptophan, and MPP^+ were analyzed in positive ionization mode with following multiple reaction monitoring (MRM) transitions: 147→90 (Gly-Sar); 205→188 (L-tryptophan); 170→128 (MPP^+). Phenyl acetic acid was analyzed in negative ionization mode with following multiple reaction monitoring (MRM) transitions: 135→91 (Phenyl acetic acid)."}, "human cornea": {"system": "human cornea", "test": "In vitro transport of transporter substrate cassette across human cornea", "method": "as §1, with “The effect of directionality of transport across cornea was not evaluated.” left out\nas §2\nAnalytes concentrations in transport study samples were analyzed using LC-MS/MS method after 5-fold dilution with acetonitrile to reduce the salt concentrations. […] Phenyl acetic acid was analyzed separately in negative ionization method and normal phase separation method. […] Gly-Sar, L-tryptophan, and MPP^+ were analyzed in positive ionization mode with following multiple reaction monitoring (MRM) transitions: 147→90 (Gly-Sar); 205→188 (L-tryptophan); 170→128 (MPP^+). Phenyl acetic acid was analyzed in negative ionization mode with following multiple reaction monitoring (MRM) transitions: 135→91 (Phenyl acetic acid)."}, "[2]": {"system": "calf sclera-choroid-RPE (SCRPE)", "test": "In vitro transport of substrate cassette across normoxic and hypoxic calf SCRPE", "details": "calf SCRPE; for transport across hypoxic vs normoxic tissue (in words): cassette 100 μM", "excerpt": "(§3) Animals used in this study were those that were sacrificed as part of other experiments approved by the Institutional Animal Care Committee of the Colorado State University (Fort Collins) and University of Colorado Anschutz Medical campus. Hypoxic and normoxic calf eyes were obtained from the Department of Physiology, School of Veterinary Medicine, Colorado State University (Fort Collins, Colo.). Briefly, 1 day old male Holstein calves (n=4) were kept in hypobaric hypoxic chambers (PB=445 mm Hg) for 2 weeks. For control experiment, age matched calves (n=4) were kept at ambient altitude (PB=650 mm Hg) and normoxia for two weeks. Hypoxic and normoxic rat eyes were obtained from the Department of Medicine, University of Colorado Anschutz Medical campus (Aurora, Colo.). Sprague Dawley rats (n=4) were maintained in hypobaric hypoxic chambers (PB=380 mm Hg) for 6 weeks and age matched controls were kept at ambient pressure and normoxia.\n(§4) In vitro transport studies across hypoxic and control calf cornea and sclera-choroid-RPE (SCRPE) were carried using cassette dosing approach. A cassette of drug transporter substrates, Gly-Sar (PEPT), valacylovir (ATB^0+), MPP^+ (OCT), and phenylacetic acid (MCT) at a concentration of 100 μM each in assay buffer was prepared. Briefly, the calf eyes were harvested immediately after euthanasia and transferred to the laboratory on ice. Upon arrival in the lab, the eyes were washed with assay buffer and cleaned from muscle and unwanted tissues. Anterior and posterior parts were separated by circumferential cut at the limbus. Vitreous was removed and the neural retina was separated from the choroid-RPE by filling the eye cup with assay buffer. The retina afloat in assay buffer was isolated and the eye cup was divided into two pieces (˜1.5×1.5 cm) of sclera-choroid-RPE. Isolated tissues were mounted on modified Ussing chambers (Navicyte, Sparks, Nev.) such that the episcleral side of SCRPE or epithelial side of cornea was facing the donor chamber and retinal side or endothelial side of the cornea was facing the receiver chamber. The chambers were filled with 1.5 ml of assay buffer at 37° C. with (donor side) or without (receiver side) the cocktail of drug transporter substrates. For the study of effect of transporter inhibitors, cocktail mixture (500 μM) of transporter inhibitors was added on both donor and acceptor sides.\n(§5) During the transport study, the bathing fluids were maintained at 37° C. using circulating warm water. The pH of the fluids was maintained at pH 7.4 using 95% air-5% CO2 aeration. Samples were collected (200 μL) from receiver side every hour for 6 hours and the removed volume was replaced with fresh assay buffer pre-equilibrated to 37° C. Drug levels were analyzed using a LC-MS/MS assay. Permeation data were corrected for dilution of the receiver concentrations with sample volume replenishment.\n(§6) Analyte concentrations in transport study samples were measured using LC-MS/MS method after 5-fold dilution with acetonitrile to reduce the salt concentrations. A cassette analysis method was developed for simultaneous analysis of Gly-Sar, valacylovir, and MPP Phenyl acetic acid was analyzed separately with a negative ionization method and a normal phase separation method. An API-3000 triple quadrupole mass spectrometry (Applied Biosystems, Foster City, Calif., USA) coupled with a PerkinElmer series-200 liquid chromatography (Perkin Elmer, Waltham, Mass., USA) system was used for analysis. Gly-Sar, valacylovir and MPP were separated on Supelco C-5 column (2.1×10 mm, 3 μm) using water containing 0.1% formic acid (A) and acetonitrile:methanol (50:50 v/v) containing 0.1% formic acid (B) as mobile phase. A linear gradient elution at a flow rate of 0.3 ml/min with a total run time of 9 min was employed. Phenyl acetic acid was separated in normal phase separation mode on Obelisc-N silica column (2.1×10 mm, 3 μM) using 5 mM ammonium formate at pH 3.5 (A) and acetonitrile (B) as mobile phase."}, "calf cornea": {"system": "calf cornea", "test": "In vitro transport of substrate cassette across normoxic and hypoxic calf cornea", "details": "calf cornea", "excerpt": "as §3, §4, §5, §6"}}, "data": [{"smiles": "O=C(O)Cc1ccccc1", "note": "[phenyl acetic acid]", "values": [{"measurement": "sclera to retina transport in presence of transporter specific inhibitor (in words)", "setting": "[1]; inhibitor cocktail 500 μM", "result": "no significant effect of inhibitor"}, {"measurement": "sclera to retina transport compared with retina to sclera transport (in words)", "setting": "[1]; substrate cassette 100 μM", "result": "retina to sclera transport was significantly higher than inward transport"}, {"measurement": "inward transport compared with outward transport (in words)", "setting": "human cornea; cornea", "result": "significantly higher than outward transport"}, {"measurement": "transport in presence of transporter inhibitor (in words)", "setting": "human cornea; human cornea, apical to basal, inhibitor cocktail 500 μM", "result": "significantly inhibited"}, {"measurement": "apparent permeability (Papp) across hypoxic vs normoxic tissue (in words)", "setting": "[2]", "result": "increased by several fold in hypoxic condition"}, {"measurement": "transport across hypoxic vs normoxic tissue (in words)", "setting": "[2]", "result": "increased by several fold in hypoxic condition"}, {"measurement": "transport across hypoxic vs normoxic tissue (in words)", "setting": "[2]; listed as phenylacetic acid", "result": "significantly higher across hypoxic SCRPE than normoxic SCRPE"}, {"measurement": "apparent permeability (Papp) across hypoxic vs normoxic tissue (in words)", "setting": "[2]; listed as phenylacetic acid", "result": "significantly higher across hypoxic SCRPE than normoxic SCRPE"}, {"measurement": "apparent permeability (Papp) across hypoxic vs normoxic tissue (in words)", "setting": "calf cornea", "result": "significantly higher across hypoxic cornea than normoxic cornea"}, {"measurement": "transport across hypoxic vs normoxic tissue (in words)", "setting": "calf cornea; cassette 100 μM", "result": "significantly higher than normoxic cornea"}]}]}
